Experimental data published in patent publication US9440972B2, “Pyrido[2,3-d]pyrimidine-2,4(1 H,3H)-dione derivatives” (Hydra Biosciences, Inc., priority 2014, dated 2016).
pIC50: −log10 of the molar value.

Legend:
TRPC5 channel [1] = molecular target: T1, TRPC5 channel (Homo sapiens, UniProt Q9UL62); assay: Patch clamp experiments (whole-cell, LaCl3-activated TRPC5 current); assay type: cell-based; conditions: whole-cell patch clamp in TRPC5-expressing HEK293 TREx cells; block of inward and outward currents in continued presence of LaCl3; IC50 estimated
T1 construct: expressed in transfected cells; host or cells: HEK293/TREx (Invitrogen), tetracycline-induced
T1 sequence (Q9UL62 1-973): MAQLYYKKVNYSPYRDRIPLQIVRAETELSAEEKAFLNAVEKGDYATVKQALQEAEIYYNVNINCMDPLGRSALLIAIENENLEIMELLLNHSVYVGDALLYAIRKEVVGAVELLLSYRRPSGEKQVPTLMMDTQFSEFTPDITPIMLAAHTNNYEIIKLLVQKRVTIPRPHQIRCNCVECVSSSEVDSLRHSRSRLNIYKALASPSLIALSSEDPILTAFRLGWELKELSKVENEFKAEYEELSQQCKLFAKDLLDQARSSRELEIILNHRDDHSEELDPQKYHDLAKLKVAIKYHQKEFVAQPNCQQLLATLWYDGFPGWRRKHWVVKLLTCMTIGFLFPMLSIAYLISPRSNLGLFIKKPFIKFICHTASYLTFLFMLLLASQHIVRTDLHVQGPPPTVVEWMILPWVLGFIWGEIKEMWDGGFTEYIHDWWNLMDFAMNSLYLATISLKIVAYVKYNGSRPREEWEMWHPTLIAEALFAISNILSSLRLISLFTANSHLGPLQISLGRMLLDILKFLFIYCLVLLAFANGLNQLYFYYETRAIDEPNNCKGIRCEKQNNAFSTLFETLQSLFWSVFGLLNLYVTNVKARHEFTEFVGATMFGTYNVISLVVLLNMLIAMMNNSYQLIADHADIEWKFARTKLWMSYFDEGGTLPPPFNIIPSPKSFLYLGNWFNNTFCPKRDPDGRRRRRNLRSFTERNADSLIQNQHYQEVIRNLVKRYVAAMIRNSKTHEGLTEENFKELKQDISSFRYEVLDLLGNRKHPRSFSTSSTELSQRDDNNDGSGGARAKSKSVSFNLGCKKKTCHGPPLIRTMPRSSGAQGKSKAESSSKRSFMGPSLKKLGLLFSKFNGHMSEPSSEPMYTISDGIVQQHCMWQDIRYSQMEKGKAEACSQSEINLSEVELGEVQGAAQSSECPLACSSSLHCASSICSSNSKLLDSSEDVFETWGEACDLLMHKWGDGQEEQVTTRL
Excerpt: Patch clamp experiments permit the detection of currents through the TRPC5 channel in the cell line described above. In normal whole-cell patch clamp recordings, a glass electrode is brought into contact with a single cell and a high-resistance (gigaohm) seal is established with the cell membrane. The membrane is then ruptured to achieve the whole-cell configuration, permitting control of the voltage of the cell membrane and measurement of currents flowing across the membrane using the amplifier attached to the electrode and resulting in the replacement of cytoplasm with the pipette solution. A perfusion system permits control of the extracellular solution, including the addition of blockers and activators of the current. The current can be activated by including 1.4 μM free Ca^2+ in the pipette (intracellular) solution, and 80 μM LaCl3 in the extracellular solution.
TRPC5 cells were induced 20-48 hours, removed from growth plates, and replated at low density (to attain good single-cell physical separation) on glass coverslips for measurement. In some cases, cells were grown in low density overnight on glass coverslips. Patch clamp recordings were made in the whole-cell mode with a holding potential of −40 mV. Every 5 seconds, a voltage ramp was applied from −120 to +100 mV, 400 ms in duration. Currents elicited were quantified at −80 mV and +80 mV. The internal solution consisted of 140 mM cesium aspartate, 10 mM HEDTA, 2 mM CaCl2, 2.27 mM MgCl2 and 10 mM HEPES, pH 7.2, with 1,400 nM calculated free Ca^2+. The external solution consisted of 150 mM NaCl, 4.5 mM KCl, 1 mM MgCl2, 2 mM CaCl2, 10 mM HEPES, 10 mM glucose, 1 mM EGTA, pH 7.4. Upon addition of LaCl3, TRPC5 current was induced only in TRPC5-expressing cells and not in parental HEK293 TREx cells. Removal of the LaCl3 stimulus causes most of the current to go away. Potential blockers were tested for ability to block both inward and outward currents in the continued presence of LaCl3.
IC50 of a compound of Formula (I) was estimated by testing the compound at 5 μM and 500 nM. […] IC50 for a compound of Formula (I) between 500 nM and 5 μM was similarly estimated.

TRPC5 channel [2] = molecular target: T1, TRPC5 channel; assay: High throughput screening assay: Fluo4 cell-based fluorescence assay of intracellular Ca2+ rise; conditions: HEK293/TREx cells inducibly expressing TRPC5, 0.027-20 μM in triplicate, NF = no IC50 curve could be fit
Excerpt: The assay depended on detection of the rise in intracellular Ca2+ concentration ([Ca2+]i) following channel activation in cells inducibly expressing the TRPC5 channel. Ca2+ rise was quantified with the use of fluorescent Ca2+ indicators that were loaded into cells and thereafter indicated the [Ca2+]i Ca2+ influx followed activation of the TRPC5 channel. Compounds inhibiting the [Ca2+]i rise were considered hits for further investigation.
The commercially available HEK293/TREx line (Invitrogen) was stably transfected with a TRPC5 construct and screened by conventional calcium imaging to find clones with TRPC5 expression following stimulation with 1 μg/ml tetracycline. These cells were maintained in the growth medium recommended by the manufacturer supplemented with 100 μg/ml hygromycin to promote retention of the TRPC5 construct. After growing to near confluency, cells were plated at a density of ˜35,000 cells/well in 384 well CellBind plates (Corning) in the presence of 1 μg/ml tetracycline, and allowed to grow for 20-30 hrs. A nearly confluent monolayer resulted. Cells were then loaded with Ca2+ dye: Fura-2/AM or Fluo4/AM was added to the wells to a final concentration of 4 μM or 0.5 μM, respectively, and incubated for 80 min or 60 min, respectively, at room temperature. Supernatant was then removed from the cells by inverting plates with a sharp flick, and 25 μl Hank's Balanced Salt Solution (HBSS; 0.185 g/l D-glucose, 0.9767 g/l MgS04 (anhydrous), 0.4 g/l KCl, 0.06 g/l KH2PO4 (anhydrous), 0.35 g/l NaHCO3, 8.0 g/l NaCl, and 0.04788 g/l Na2HPO4 (anhydrous); pH 7.4) was then added to each well. Following ˜0.5 hour for recovery from loading, cells were assayed using the Hamamatsu FDSS 6000 system, which permitted illumination alternately at 340 nm and 380 nm for Fura-2 experiments, or at 485 nm for Fluo4 experiments. Frames were acquired at a rate of 0.2 Hz. During the assay, the plates were continuously vortexed, with pipette mixing of wells following addition of each reagent. For the screening assay, 26 μl of a diluted compound stock (at 50 μM) was added to each well for 2 minutes following the collection of a short (4 frame) baseline. 13 μl 62 mM high-Ca2+Ringer solution (4.17 ml of normal ringer (with 2 mM Ca2+) plus 5.83 ml of isotonic calcium ringer (105 mM Ca2+; in this ringer all sodium has been replaced with calcium)) was then added to each well, achieving a final concentration of 14 mM Ca2+ and 10 μM test compound. Data was collected for ˜3 minutes following addition of high Ca2+Ringer, where the fluorescent intensity (for Fluo4) and the F340/F380 ratio (for Fura-2) were proportional to the [Ca2+]i Negative controls consisted of HEK293/TREx TRPC5 cells exposed to high Ca2+ solution, but no compound. Positive control conditions consisted of addition of 2-APB, a promiscuous blocker of TRPC5 and other channels, to columns 23 and 24 of the plates, to a final concentration of 200 μM. These controls defined a screening window, and “hits” were defined as those compounds inhibiting the fluorescence response by at least 40%. IC50 values were determined for compounds defined as “hits.” The Fluo4 cell-based fluorescence assay was used to determine the intracellular Ca2+ concentration in the presence of varying drug concentration. Final concentrations of compounds tested were 20 μM, 6.667 μM, 2.222 μM, 0.741 μM, 0.247 μM, 0.082 μM, and 0.027 μM. Compounds were tested in triplicate at all concentrations. Standard software was used to fit IC50 curves. A value of NF was assigned when no IC50 curves could not be fit.
Additionally or alternatively, efficacy can be represented as % inhibition in the presence (of a given concentration of compound) versus the absence of compound or in comparison to a control compound. For example, efficacy can be represented as % inhibition of ion flux in the presence versus the absence of compound.

Compound	pIC50 (TRPC5 channel [1])	pIC50 (TRPC5 channel [2])
CC(C)CCc1c(-c2ccccc2C(C)C)cnc2c1c(=O)n(CCCO)c(=O)n2C [Compound 23, 3-(3-hydroxypropyl)-5-isopentyl-6-(2-isopropylphenyl)-1-methylpyrido[2,3-d]pyrimidine-2,4(1H,3H)-dione]	7.91	5.19
Cc1cncc(Oc2cnc3c(c2Cc2ccc(Cl)cc2)c(=O)n(CCCO)c(=O)n3C)c1 [Compound 27, 5-(4-chlorobenzyl)-3-(3-hydroxypropyl)-1-methyl-6-(5-methylpyridin-3-yloxy)pyrido[2,3-d]pyrimidine-2,4(1H,3H)-dione]	7.54	
CC(C)Oc1cnc2c(c1Cc1ccccc1)c(=O)n(CCCO)c(=O)n2C [Compound 29, 5-benzyl-3-(3-hydroxypropyl)-6-isopropoxy-1-methylpyrido[2,3-d]pyrimidine-2,4(1H,3H)-dione]	8.35	7.57
Cn1c(=O)n(CCCO)c(=O)c2c(Cc3ccc(F)cc3)c(Oc3ccc(Cl)cc3)cnc21 [Compound 30, 6-(4-chlorophenoxy)-5-(4-fluorobenzyl)-3-(3-hydroxypropyl)-1-methylpyrido[2,3-d]pyrimidine-2,4(1H,3H)-dione]	> 9.00	6.45
CC(C)Oc1cnc2c(c1Cc1ccc(F)cc1)c(=O)n(CCCO)c(=O)n2C [Compound 31, 5-(4-fluorobenzyl)-3-(3-hydroxypropyl)-6-isopropoxy-1-methylpyrido[2,3-d]pyrimidine-2,4(1H,3H)-dione]	8.83	7.57
Cn1c(=O)n(CCCO)c(=O)c2c(Cc3ccccc3)c(-c3cccc(F)c3)cnc21 [Compound 34, 5-benzyl-6-(3-fluorophenyl)-3-(3-hydroxypropyl)-1-methylpyrido[2,3-d]pyrimidine-2,4(1H,3H)-dione]	8.08	6.81
CC(C)Oc1cnc2c(c1Cc1ccc(Cl)cc1)c(=O)n(CCCO)c(=O)n2C [Compound 36, 5-(4-chlorobenzyl)-3-(3-hydroxypropyl)-6-isopropoxy-1-methylpyrido[2,3-d]pyrimidine-2,4(1H,3H)-dione]	8.92	7.57

The remaining lines, values ahead:

pIC50 (TRPC5 channel [1])	pIC50 (TRPC5 channel [2])	Compound
> 9.00	6.57	Cn1c(=O)n(CCCO)c(=O)c2c(Cc3ccc(Cl)cc3)c(Oc3cccc(OC(F)(F)F)c3)cnc21 [Compound 21, 5-(4-chlorobenzyl)-3-(3-hydroxypropyl)-1-methyl-6-(3-(trifluoromethoxy)phenoxy)pyrido[2,3-d]pyrimidine-2,4(1H,3H)-dione]
8.47	7.85	Cn1c(=O)n(CCCO)c(=O)c2c(Cc3ccc(Cl)cn3)c(-c3cccc(OC(F)(F)F)c3)cnc21 [Compound 35, 5-((5-chloropyridin-2-yl)methyl)-3-(3-hydroxypropyl)-1-methyl-6-(3-(trifluoromethoxy)phenyl)pyrido[2,3-d]pyrimidine-2,4(1H,3H)-dione]
7.29		Cn1c(=O)n(CCCO)c(=O)c2c(C(O)c3ccc(Cl)cc3)c(-c3cccc(OC(F)(F)F)c3)cnc21 (stereo not shown) [Compound 39, 5-((4-chlorophenyl)(hydroxyl)methyl)-3-(3-hydroxypropyl)-1-methyl-6-(3-(trifluoromethoxy)phenyl)pyrido[2,3-d]pyrimidine-2,4(1H,3H)-dione]
8.54		Cn1c(=O)n(CCCO)c(=O)c2c(Cc3ccc(Cl)cc3)c(-c3cccc(OC(F)(F)F)c3)cnc21 [Compound 40, 5-(4-chlorobenzyl)-3-(3-hydroxypropyl)-1-methyl-6-(3-(trifluoromethoxy)phenyl)pyrido[2,3-d]pyrimidine-2,4(1H,3H)-dione]
